Measurements from PMC12198282, “Application of a high-density microelectrode array assay using a 3D human iPSC-derived brain microphysiological system model for in vitro neurotoxicity screening of environmental compounds” (Archives of Toxicology, 2025).
Like-named read-outs stand apart in the source and are kept apart here.

Assays:
2D rat cortical cultures [1] = conditions: cited from earlier work
2D rat cortical cultures [2] = conditions: read-out: ac50 CCTE_Shafer_MEA_dev_AB; rNFA mc5; cytotoxicity AlamarBlue; cited from earlier work
2D rat cortical cultures [3] = conditions: read-out: ac50 CCTE_Shafer_MEA_dev_LDH; rNFA mc5; cytotoxicity LDH; cited from earlier work
[4] = tested on: human iPSC-derived 3D BrainSpheres; assay: BrainSphere MEA assay (HD-MEA, 13-day exposure, concentration-response); assay type: cell-based; conditions: for EC (benchmark response 1.349 SD): 312 h; as to hitc Mean.Spheroid.Burst.Duration: key: 1 (active); 0 (inactive); as to hitc Mean.Spheroid.Burst.ISI: key: 1 (active); 0 (inactive); as to hitc Mean.Spheroid.Burst.Peak.Firing.Rate: key: 1 (active); 0 (inactive); as to hitc Mean.Spheroid.Firing.Rate: key: 1 (active); 0 (inactive); as to hitc Mean.Spheroid.IBI: key: 1 (active); 0 (inactive); as to hitc Mean.Spheroid.Nonburst.ISI: key: 1 (active); 0 (inactive); as to hitc Mean.Spheroid.Spikes.per.Burst.per.Electrode: key: 1 (active); 0 (inactive); as to hitc Mean.Spheroid.Spikes.per.Burst: key: 1 (active); 0 (inactive); as to hitc Spheroid.Burst.Frequency: key: 1 (active); 0 (inactive); as to hitc Spheroid.Spike.Amplitude.90th.Percentile: key: 1 (active); 0 (inactive)
In short: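 Recordings used a 5× RMS spike threshold and 600 s network scans of fixed electrode regions, each region clustered as one BrainSphere. Spheres had 7 weeks of differentiation and 48 h attachment on coated HD-MEA chips before day 0 of the 13-day concentration-response exposure. At least three independent plates were run.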
For hitc CCTE Shafer MEA dev active electrodes number in this document: key: 1 (active); 0 (inactive).
For hitc CCTE Shafer MEA dev burst duration mean in this document: key: 1 (active); 0 (inactive).
For hitc CCTE Shafer MEA dev burst rate in this document: key: 1 (active); 0 (inactive).
For hitc CCTE Shafer MEA dev bursting electrodes number in this document: key: 1 (active); 0 (inactive).
For hitc CCTE Shafer MEA dev correlation coefficient mean in this document: key: 1 (active); 0 (inactive).
For hitc CCTE Shafer MEA dev firing rate mean in this document: key: 1 (active); 0 (inactive).
For hitc CCTE Shafer MEA dev inter network spike interval mean in this document: key: 1 (active); 0 (inactive).
For hitc CCTE Shafer MEA dev interburst interval mean in this document: key: 1 (active); 0 (inactive).
For hitc CCTE Shafer MEA dev mutual information norm in this document: key: 1 (active); 0 (inactive).
For hitc CCTE Shafer MEA dev network spike duration std in this document: key: 1 (active); 0 (inactive).
For hitc CCTE Shafer MEA dev network spike number in this document: key: 1 (active); 0 (inactive).
For hitc CCTE Shafer MEA dev network spike peak in this document: key: 1 (active); 0 (inactive).
For hitc CCTE Shafer MEA dev per burst interspike interval in this document: key: 1 (active); 0 (inactive).
For hitc CCTE Shafer MEA dev per burst spike percent in this document: key: 1 (active); 0 (inactive).
For hitc CCTE Shafer MEA dev per network spike spike number mean in this document: key: 1 (active); 0 (inactive).
For hitc CCTE Shafer MEA dev per network spike spike percent in this document: key: 1 (active); 0 (inactive).
For hitc CCTE Shafer MEA dev spike duration mean in this document: key: 1 (active); 0 (inactive).

CN(C)C(=O)C(CCN1CCC(O)(c2ccc(Cl)cc2)CC1)(c1ccccc1)c1ccccc1 [Loperamide]
Bioactivity in the rNFA (in words) (2D rat cortical cultures [1]): alter multiple parameters of network formation
hitc CCTE_Shafer_MEA_dev_active_electrodes_number (2D rat cortical cultures [1]): 1
hitc CCTE_Shafer_MEA_dev_burst_duration_mean (2D rat cortical cultures [1]): 1
hitc CCTE_Shafer_MEA_dev_burst_rate (2D rat cortical cultures [1]): 1
hitc CCTE_Shafer_MEA_dev_bursting_electrodes_number (2D rat cortical cultures [1]): 1
hitc CCTE_Shafer_MEA_dev_correlation_coefficient_mean (2D rat cortical cultures [1]): 1
hitc CCTE_Shafer_MEA_dev_firing_rate_mean (2D rat cortical cultures [1]): 1
hitc CCTE_Shafer_MEA_dev_inter_network_spike_interval_mean (2D rat cortical cultures [1]): 0
hitc CCTE_Shafer_MEA_dev_interburst_interval_mean (2D rat cortical cultures [1]): 1
hitc CCTE_Shafer_MEA_dev_mutual_information_norm (2D rat cortical cultures [1]): 1
hitc CCTE_Shafer_MEA_dev_network_spike_duration_std (2D rat cortical cultures [1]): 1
hitc CCTE_Shafer_MEA_dev_network_spike_number (2D rat cortical cultures [1]): 1
hitc CCTE_Shafer_MEA_dev_network_spike_peak (2D rat cortical cultures [1]): 1
hitc CCTE_Shafer_MEA_dev_per_burst_interspike_interval (2D rat cortical cultures [1]): 1
hitc CCTE_Shafer_MEA_dev_per_burst_spike_percent (2D rat cortical cultures [1]): 1
hitc CCTE_Shafer_MEA_dev_per_network_spike_spike_number_mean (2D rat cortical cultures [1]): 1
hitc CCTE_Shafer_MEA_dev_per_network_spike_spike_percent (2D rat cortical cultures [1]): 1
hitc CCTE_Shafer_MEA_dev_spike_duration_mean (2D rat cortical cultures [1]): 1
AC50 (2D rat cortical cultures [1]; read-out: ac50 CCTE_Shafer_MEA_dev_active_electrodes_number): 196 nM
AC50 (2D rat cortical cultures [1]; read-out: ac50 CCTE_Shafer_MEA_dev_burst_duration_mean): 33 nM
AC50 (2D rat cortical cultures [1]; read-out: ac50 CCTE_Shafer_MEA_dev_burst_rate): 42 nM
AC50 (2D rat cortical cultures [1]; read-out: ac50 CCTE_Shafer_MEA_dev_bursting_electrodes_number): 117 nM
AC50 (2D rat cortical cultures [1]; read-out: ac50 CCTE_Shafer_MEA_dev_correlation_coefficient_mean): 766 nM
AC50 (2D rat cortical cultures [1]; read-out: ac50 CCTE_Shafer_MEA_dev_firing_rate_mean): 63 nM
AC50 (2D rat cortical cultures [1]; read-out: ac50 CCTE_Shafer_MEA_dev_interburst_interval_mean): 249 nM
AC50 (2D rat cortical cultures [1]; read-out: ac50 CCTE_Shafer_MEA_dev_mutual_information_norm): 112 nM
AC50 (2D rat cortical cultures [1]; read-out: ac50 CCTE_Shafer_MEA_dev_network_spike_duration_std): 262 nM
AC50 (2D rat cortical cultures [1]; read-out: ac50 CCTE_Shafer_MEA_dev_network_spike_number): 33 nM
AC50 (2D rat cortical cultures [1]; read-out: ac50 CCTE_Shafer_MEA_dev_network_spike_peak): 1810 nM
AC50 (2D rat cortical cultures [1]; read-out: ac50 CCTE_Shafer_MEA_dev_per_burst_interspike_interval): 67 nM
AC50 (2D rat cortical cultures [1]; read-out: ac50 CCTE_Shafer_MEA_dev_per_burst_spike_percent): 244 nM
AC50 (2D rat cortical cultures [1]; read-out: ac50 CCTE_Shafer_MEA_dev_per_network_spike_spike_number_mean): 766 nM
AC50 (2D rat cortical cultures [1]; read-out: ac50 CCTE_Shafer_MEA_dev_per_network_spike_spike_percent): 2300 nM
AC50 (2D rat cortical cultures [1]; read-out: ac50 CCTE_Shafer_MEA_dev_spike_duration_mean): 511 nM
AC50 (2D rat cortical cultures [2]): 5.02 µM
AC50 (2D rat cortical cultures [3]): 2940 nM
ACC Mean.Spheroid.Burst.Duration [4]: 0.076 µM
ACC Mean.Spheroid.Burst.ISI [4]: 0.019 µM
ACC Mean.Spheroid.Burst.Peak.Firing.Rate [4]: 0.065 µM
ACC Mean.Spheroid.Firing.Rate [4]: 0.036 µM
ACC Mean.Spheroid.IBI [4]: 0.9 µM
ACC Mean.Spheroid.Nonburst.ISI [4]: 0.97 µM
ACC Mean.Spheroid.Spikes.per.Burst [4]: 0.08 µM
ACC Mean.Spheroid.Spikes.per.Burst.per.Electrode [4]: 0.082 µM
ACC Spheroid.Burst.Frequency [4]: 0.026 µM
ACC Spheroid.Spike.Amplitude.90th.Percentile [4]: 6.6 µM
BMD Mean.Spheroid.Burst.Duration [4]: 0.087 µM
BMD Mean.Spheroid.Burst.Peak.Firing.Rate [4]: 0.071 µM
BMD Mean.Spheroid.Firing.Rate [4]: 0.025 µM
BMD Mean.Spheroid.IBI [4]: 0.83 µM
BMD Mean.Spheroid.Spikes.per.Burst [4]: 0.054 µM
BMD Mean.Spheroid.Spikes.per.Burst.per.Electrode [4]: 0.07 µM
BMD Spheroid.Burst.Frequency [4]: 0.031 µM
BMD Spheroid.Spike.Amplitude.90th.Percentile [4]: 2.6 µM
Bioactivity trend over time for MFR, mean spike amplitude and burst frequency (qualitative) [4]: appeared to decrease activity
Difference of minimum potency between BrainSphere MEA assay and rNFA [4]: ≤ 0.5 log10 µM
Percent active [4]: 100%
hitc Mean.Spheroid.Burst.Duration [4]: 1
hitc Mean.Spheroid.Burst.ISI [4]: 1
hitc Mean.Spheroid.Burst.Peak.Firing.Rate [4]: 1
hitc Mean.Spheroid.Firing.Rate [4]: 1
hitc Mean.Spheroid.IBI [4]: 1
hitc Mean.Spheroid.Nonburst.ISI [4]: 1
hitc Mean.Spheroid.Spikes.per.Burst [4]: 1
hitc Mean.Spheroid.Spikes.per.Burst.per.Electrode [4]: 1
hitc Spheroid.Burst.Frequency [4]: 1
hitc Spheroid.Spike.Amplitude.90th.Percentile [4]: 1
EC (benchmark response 1.349 SD) ([4]; Homo sapiens, read-out: BMD Mean.Spheroid.Burst.ISI): 0.04 µM
EC (benchmark response 1.349 SD) ([4]; Homo sapiens, read-out: BMD Mean.Spheroid.Nonburst.ISI): 0.95 µM
AC50 ([4]; Homo sapiens, read-out: ac50 Mean.Spheroid.Burst.Duration): 140 nM
AC50 ([4]; Homo sapiens, read-out: ac50 Mean.Spheroid.Burst.ISI): 100 nM
AC50 ([4]; Homo sapiens, read-out: ac50 Mean.Spheroid.Burst.Peak.Firing.Rate): 120 nM
AC50 ([4]; Homo sapiens, read-out: ac50 Mean.Spheroid.Firing.Rate): 23 nM
AC50 ([4]; Homo sapiens, read-out: ac50 Mean.Spheroid.IBI): 910 nM
AC50 ([4]; Homo sapiens, read-out: ac50 Mean.Spheroid.Nonburst.ISI): 990 nM
AC50 ([4]; Homo sapiens, read-out: ac50 Mean.Spheroid.Spikes.per.Burst): 73 nM
AC50 ([4]; Homo sapiens, read-out: ac50 Mean.Spheroid.Spikes.per.Burst.per.Electrode): 94 nM
AC50 ([4]; Homo sapiens, read-out: ac50 Spheroid.Spike.Amplitude.90th.Percentile): 8900 nM
AC50 ([4]; read-out: ac50 Mean.Spheroid.Burst.Duration): 145 nM
AC50 ([4]; read-out: ac50 Mean.Spheroid.Burst.ISI): 103 nM
AC50 ([4]; read-out: ac50 Mean.Spheroid.Burst.Peak.Firing.Rate): 115 nM
AC50 ([4]; read-out: ac50 Mean.Spheroid.Nonburst.ISI): 989 nM
AC50 ([4]; read-out: ac50 Spheroid.Spike.Amplitude.90th.Percentile): 8930 nM
